Results reported in patent US20230219965A1 (KSQ Therapeutics, Inc., priority 2020, published 2023).
Read-outs that look alike come from different tables or passages of the source.

Experiments:
[1] = Liver microsomal metabolic stability, human liver microsomes (HLM); conditions: human, liver microsomes
[2] = Liver microsomal metabolic stability, rat liver microsomes (RLM); conditions: rat, liver microsomes, t1/2 (min) in RLM, 1 μM compound, 1 mg/mL microsomes, NADPH
USP1/UAF1 enzyme = USP1/UAF1 enzyme (Homo sapiens, UniProt O94782); assay: USP1/UAF1 deubiquitination assay (ubiquitin-rhodamine 110 substrate); assay type: biochemical; conditions: read-out: USP1 IC50 (Ub-Rho)
Outline: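 Cleavage of 150 nM ubiquitin-rhodamine 110 by 0.05 nM USP1/UAF1 was followed as fluorescence (Ex480/Em540, kinetic, 30 min) in Tris-HCl pH 7.8 buffer with EDTA, BSA, DTT and Tween-20. Compounds, top 10 μM, were preincubated with enzyme 10 min; % inhibition against no-enzyme and DMSO wells gave four-parameter IC50s.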

[3] = ADME solubility determination in PBS at pH 2.0 and pH 7.4; assay type: physicochemical; conditions: phosphate buffered saline, 25 °C, thermodynamic from solid
Experimental: Certain Compounds of the Disclosure were assessed for ADME solubility at pH 2.0 and pH 7.4.
Stock solutions were prepared by adding each compound to DMSO at a concentration of 10 mM. Samples were prepared by adding 50 μL of each stock solution to separate vials. The vials were loaded onto a 96-well rack and dried. 500 μL of Phosphate Buffered Saline (PBS) pH 7.4 or PBS pH 2.0 were added into each vial. The vials were then shaken at 25° C. and 1,100 rpm for 24 hours.
After 24 hours, the vials were centrifuged at 3220 G and 25° C. for 30 minutes. The supernatant fluid was analyzed by LC-MS/MS against a standard of known concentration. The solubility of each sample was then calculated using the equation below: […]
where DF is the dilution factor.

[4] = pH 2, aqueous buffer, PBS pH 2.0, 25° C., read-out: Solubility at pH 2.0
[5] = pH 7.4, aqueous buffer, PBS pH 7.4, 25° C., read-out: Solubility at pH 7.4

Chain of USP1/UAF1 enzyme (O94782 whole entry): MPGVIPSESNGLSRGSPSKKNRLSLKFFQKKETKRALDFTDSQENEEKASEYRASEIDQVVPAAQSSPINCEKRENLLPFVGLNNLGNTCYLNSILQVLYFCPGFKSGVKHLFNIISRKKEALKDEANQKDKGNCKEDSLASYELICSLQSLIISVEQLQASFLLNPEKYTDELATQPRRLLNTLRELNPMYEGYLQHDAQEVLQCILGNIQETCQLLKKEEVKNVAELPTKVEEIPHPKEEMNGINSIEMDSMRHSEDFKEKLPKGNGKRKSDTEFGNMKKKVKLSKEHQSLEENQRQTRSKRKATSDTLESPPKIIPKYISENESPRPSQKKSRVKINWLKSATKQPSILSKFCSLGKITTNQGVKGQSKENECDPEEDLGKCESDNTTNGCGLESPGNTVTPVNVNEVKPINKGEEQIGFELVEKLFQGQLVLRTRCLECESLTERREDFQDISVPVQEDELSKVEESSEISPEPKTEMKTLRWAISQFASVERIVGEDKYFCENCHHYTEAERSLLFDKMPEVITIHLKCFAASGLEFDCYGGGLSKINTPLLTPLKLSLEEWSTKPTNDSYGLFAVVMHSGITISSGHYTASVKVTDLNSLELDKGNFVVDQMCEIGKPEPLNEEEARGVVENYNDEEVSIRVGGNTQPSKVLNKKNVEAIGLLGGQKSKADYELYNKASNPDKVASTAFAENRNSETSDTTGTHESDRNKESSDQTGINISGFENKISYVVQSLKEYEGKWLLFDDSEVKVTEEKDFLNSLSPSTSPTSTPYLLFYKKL
Chain of USP1/UAF1 enzyme (Q8TAF3 whole entry partner): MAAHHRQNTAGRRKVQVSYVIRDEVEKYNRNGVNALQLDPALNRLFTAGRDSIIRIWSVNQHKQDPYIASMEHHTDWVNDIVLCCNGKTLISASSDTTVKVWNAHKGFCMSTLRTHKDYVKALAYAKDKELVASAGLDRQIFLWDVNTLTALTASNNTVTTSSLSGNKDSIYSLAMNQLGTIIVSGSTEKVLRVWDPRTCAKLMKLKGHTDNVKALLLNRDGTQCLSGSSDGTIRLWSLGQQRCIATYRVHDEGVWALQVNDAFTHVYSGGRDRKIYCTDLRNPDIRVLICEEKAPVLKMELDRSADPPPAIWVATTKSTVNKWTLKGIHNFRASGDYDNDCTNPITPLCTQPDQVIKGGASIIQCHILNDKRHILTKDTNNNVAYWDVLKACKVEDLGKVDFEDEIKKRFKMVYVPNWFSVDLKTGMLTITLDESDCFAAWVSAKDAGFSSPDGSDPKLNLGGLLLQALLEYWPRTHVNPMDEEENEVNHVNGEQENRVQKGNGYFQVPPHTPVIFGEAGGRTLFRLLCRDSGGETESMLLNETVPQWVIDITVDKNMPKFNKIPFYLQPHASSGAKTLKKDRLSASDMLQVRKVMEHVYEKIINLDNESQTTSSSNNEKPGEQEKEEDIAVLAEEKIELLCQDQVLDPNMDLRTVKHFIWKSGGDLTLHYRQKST

half-life at 1 μM [1] | half-life at 1 μM [2] | IC50 (USP1/UAF1 enzyme) | solubility at 24 h [3, 4] | solubility at 24 h [3, 5] | SMILES
> 25 min | > 25 min | < 100 nM | < 10 µM | < 10 µM | CCn1cc(C(F)(F)F)nc1-c1ccc(N[C@@H]2CCCn3nc(-c4c(Cl)cnn4[C@H](C)CF)cc32)cc1 (single isomer, unassigned) [Example 323]
> 25 min | > 25 min | < 100 nM | < 10 µM | < 10 µM | CCn1cc(C(F)(F)F)nc1-c1ccc(N[C@@H]2CCCn3nc(-c4c(Cl)cnn4[C@@H](C)CF)cc32)cc1 (single isomer, unassigned) [Example 324]
> 25 min | > 25 min | < 100 nM | < 10 µM | < 10 µM | COc1ncnc(C2CC2)c1-c1cc2n(n1)CCC(=O)N2Cc1ccc(-n2nc(C(F)(F)F)cc2C)cc1 [Example 4, 2-(4-cyclopropyl-6-methoxypyrimidin-5-yl)-4-(4-(5-methyl-3-(trifluoromethyl)-1H-pyrazol-1-yl)benzyl)-6,7-dihydropyrazolo[1,5-a]pyrimidin-5(4H)-one]
– | – | 100 to 500 nM | < 10 µM | < 10 µM | COCCOc1cc(CN2C(=O)CCn3nc(-c4c(Cl)cnn4C(C)C)nc32)ccc1-c1nc(C(F)(F)F)cn1C(C)C [Example 167]
– | – | < 100 nM | – | – | COc1ncnc(C2CC2)c1-c1nc2n(n1)CCC(=O)N2C(C)c1ccc(-c2nc(C(F)(F)F)cn2C)cc1 (centres unmarked) [Example 378, 2-(4-cyclopropyl-6-methoxypyrimidin-5-yl)-4-(1-(4-(1-methyl-4-(trifluoromethyl)-1H-imidazol-2-yl)phenyl)ethyl)-6,7-dihydro-[1,2,4]triazolo[1,5-a]pyrimidin-5(4H)-one]
– | – | < 100 nM | – | – | CCn1cc(C(F)(F)F)nc1-c1ccc(CN2C(=O)[C@@H](C)Cn3nc(-c4c(OC)ncnc4C4CC4)nc32)cc1 [Example 381, (S)-2-(4-cyclopropyl-6-methoxypyrimidin-5-yl)-4-(4-(1-ethyl-4-(trifluoromethyl)-1H-imidazol-2-yl)benzyl)-6-methyl-6,7-dihydro-[1,2,4]triazolo[1,5-a]pyrimidin-5(4H)-one]
– | – | < 100 nM | – | – | CCn1cc(C(F)(F)F)nc1-c1ccc(CN2C(=O)[C@H](C)Cn3nc(-c4c(OC)ncnc4C4CC4)nc32)cc1 [Example 382, (R)-2-(4-cyclopropyl-6-methoxypyrimidin-5-yl)-4-(4-(1-ethyl-4-(trifluoromethyl)-1H-imidazol-2-yl)benzyl)-6-methyl-6,7-dihydro-[1,2,4]triazolo[1,5-a]pyrimidin-5(4H)-one]
– | – | 100 to 500 nM | – | – | COc1ncnc(C2CC2)c1-c1nc2n(n1)CC(C)C(=O)N2Cc1ccc(-c2nc(C(F)(F)F)cn2C(C)CF)cc1 (centres unmarked) [Example 383, 2-(4-cyclopropyl-6-methoxypyrimidin-5-yl)-4-(4-(1-(1-fluoropropan-2-yl)-4-(trifluoromethyl)-1H-imidazol-2-yl)benzyl)-6-methyl-6,7-dihydro-[1,2,4]triazolo[1,5-a]pyrimidin-5(4H)-one]
– | – | < 100 nM | – | – | CCn1cc(C(F)(F)F)nc1-c1ccc(C(C)N2C(=O)C(C)Cn3nc(-c4c(OC)ncnc4C4CC4)nc32)cc1 (centres unmarked) [Example 384, 2-(4-cyclopropyl-6-methoxypyrimidin-5-yl)-4-(1-(4-(1-ethyl-4-(trifluoromethyl)-1H-imidazol-2-yl)phenyl)ethyl)-6-methyl-6,7-dihydro-[1,2,4]triazolo[1,5-a]pyrimidin-5(4H)-one]
– | – | < 100 nM | – | – | Cn1cc(C(F)(F)F)nc1-c1ccc(Cn2c(=O)ccn3nc(-c4c(OC(F)F)ncnc4C4CC4)nc23)cc1F [Example 385, 2-(4-cyclopropyl-6-(difluoromethoxy)pyrimidin-5-yl)-4-(3-fluoro-4-(1-methyl-4-(trifluoromethyl)-1H-imidazol-2-yl)benzyl)-[1,2,4]triazolo[1,5-a]pyrimidin-5(4H)-one]
– | – | < 100 nM | – | – | COc1ncnc(C2CC2)c1-c1nc2n(Cc3ccc(-c4nc(C(F)(F)F)cn4C)c(F)c3)c(=O)ccn2n1 [Example 386, 2-(4-cyclopropyl-6-methoxypyrimidin-5-yl)-4-(3-fluoro-4-(1-methyl-4-(trifluoromethyl)-1H-imidazol-2-yl)benzyl)-[1,2,4]triazolo[1,5-a]pyrimidin-5(4H)-one]
– | – | < 100 nM | – | – | COc1ncnc(C2CC2)c1-c1cc2n(n1)CCCC2Nc1ccc(-c2nc(C(F)(F)F)cn2CCF)cc1 (centres unmarked) [Example 387, 2-(4-cyclopropyl-6-methoxypyrimidin-5-yl)-N-(4-(1-(2-fluoroethyl)-4-(trifluoromethyl)-1H-imidazol-2-yl)phenyl)-4,5,6,7-tetrahydropyrazolo[1,5-a]pyridin-4-amine]
– | – | < 100 nM | – | – | COc1ncnc(C2CC2)c1-c1cc2n(n1)CCCC2Nc1ccc(-c2nc(C(F)(F)F)cn2C)c(F)c1 (centres unmarked) [Example 388, 2-(4-cyclopropyl-6-methoxypyrimidin-5-yl)-N-(3-fluoro-4-(1-methyl-4-(trifluoromethyl)-1H-imidazol-2-yl)phenyl)-4,5,6,7-tetrahydropyrazolo[1,5-a]pyridin-4-amine]
– | – | < 100 nM | – | – | [2H]C([2H])([2H])C([2H])([2H])n1cc(C(F)(F)F)nc1-c1ccc(NC2CCCn3nc(-c4c(OC)ncnc4C4CC4)cc32)cc1 (centres unmarked) [Example 389, 2-(4-cyclopropyl-6-methoxypyrimidin-5-yl)-N-(4-(1-(ethyl-d5)-4-(trifluoromethyl)-1H-imidazol-2-yl)phenyl)-4,5,6,7-tetrahydropyrazolo[1,5-a]pyridin-4-amine]
– | – | < 100 nM | – | – | CC(CF)n1cc(C(F)(F)F)nc1-c1ccc(NC2CCCn3nc(-c4c(Cl)cnn4C(C)C)cc32)cc1 (centres unmarked) [Example 390, 2-(4-chloro-1-isopropyl-1H-pyrazol-5-yl)-N-(4-(1-(1-fluoropropan-2-yl)-4-(trifluoromethyl)-1H-imidazol-2-yl)phenyl)-4,5,6,7-tetrahydropyrazolo[1,5-a]pyridin-4-amine]
– | – | < 100 nM | – | – | CCn1cc(C(F)(F)F)nc1-c1ccc(Cn2c(=O)c(C)cn3nc(-c4c(OC)ncnc4C4CC4)nc23)cc1 [Example 391, 2-(4-cyclopropyl-6-methoxypyrimidin-5-yl)-4-(4-(1-ethyl-4-(trifluoromethyl)-1H-imidazol-2-yl)benzyl)-6-methyl-[1,2,4]triazolo[1,5-α]pyrimidin-5(4H)-one]
– | – | < 100 nM | – | – | CCn1cc(C(F)(F)F)nc1-c1ccc(Cn2c(=O)c(C)cn3nc(-c4c(OC(F)F)ncnc4C4CC4)nc23)cc1 [Example 392, 2-(4-cyclopropyl-6-(difluoromethoxy)pyrimidin-5-yl)-4-(4-(1-ethyl-4-(trifluoromethyl)-1H-imidazol-2-yl)benzyl)-6-methyl-[1,2,4]triazolo[1,5-a]pyrimidin-5(4H)-one]
– | – | < 100 nM | – | – | COc1ncnc(C2CC2)c1-c1cc2n(n1)CCC[C@@H]2Oc1ccc(-c2nc(C(F)(F)F)cn2C(C)CF)cc1 (stereo partly drawn) [Example 393, (4S)-2-(4-cyclopropyl-6-methoxypyrimidin-5-yl)-4-(4-(1-(1-fluoropropan-2-yl)-4-(trifluoromethyl)-1H-imidazol-2-yl)phenoxy)-4,5,6,7-tetrahydropyrazolo[1,5-α]pyridine]
